Test results published in patent US10617734B2, “STAT3 and ERK signal pathway inhibitor comprising mogrosides and analogs thereof” (BEIJING UNIVERSITY OF AGRICULTURE, priority 2014, dated 2020).

Assays:
Type in all cases: cell-based
lymphoma U937 cells [1] = assay: Cell morphology, Hoechst 33258 staining, fluorescence microscope; conditions: lymphoma U937 cells, 10, 100 and 250 μmol/L, 24-hour culture
Method: (§1) Lymphoma U937 cells, human melanoma A875 cells and leukemia cells K562 in logarithmic growth phase were selected, and the concentrations of the cells were adjusted to 1×10^4 cells/mL, and the cells were transferred to a 6-well plate for culture, and after the 24-hour culture, drugs were added to achieve final concentrations of 0, 10, 100 and 250 μmol/L, wherein only whole medium was added to the negative control groups, while Mogroside II A2 was added to the positive control groups, after 24-hour culture, waste solution was removed, and fixing solution was added to each well for fixing for 25 min, and then the resulting mixture was washed twice, 3 min each time, and then Hoechst 33258 staining solution was added for staining in dark at room temperature for 30 min, and the cell morphology variation was observed using a fluorescence microscope.

[2] = test system: human melanoma A875 cells; assay: as above; conditions: A875 melanoma cells, 10, 100 and 250 μmol/L, 24-hour culture
Method: as §1

[3] = test system: cycle regulatory protein P21; assay: Western Blotting of P21 in A875 cells; conditions: human melanoma A875 cells, 10 μmol/L, 24 h
Method: (§2) The STAT3 and ERK signal pathways can regulate cyclins and apoptosis genes, and in order to verify the effects of […] and mogrol, the expression status of downstream genes of STAT3 and ERK was detected, wherein the influences of the three mogrosides and analogs thereof, i.e. Mogrol I E1, Mogrol II A2 and mogrol, on Bcl-2 and P21 proteins in the histiocytic lymphoma U937 cells, human melanoma A875 cells and leukemia cells K562 were determined, respectively.
(§3) The regulation of Bcl-2 and P21 proteins by mogrosides and analog thereof to the was detected by Western Blotting, specifically: histiocytic lymphoma U937 cells, human melanoma A875 cells and leukemia cells K562 (1×10^6 cells/well) were inoculated into a 6-well culture plate overnight, and 0 and 10 μmol/L of the mogrosides and analogs thereof were added respectively, and kept cultured for 24 h. […]
(§4) The protein concentration was measured with bovine serum albumin (BSA) as the standard. 50 μg of the total proteins were separated by polyacrylamide gel electrophoresis with 12% SDS, and electrophoretically transferred to a PVDF membrane (polyvinylidene fluoride membrane), and blocked for 1 h by 5% of skim milk (containing 0.1% of Tween 20), and then antibodies P21, Bcl-2 and β-actin were added, wherein the primary antibody was incubated at 4° C. overnight (β-actin was used as reference loading amount); the membrane was washed for 3 times with TBS-T, 5 min each time; secondary antibody marked by horseradish peroxidase (HRP) was added for incubation at room temperature for 1 h, the membrane was washed with rinse solution (TBS-T) for 3 times, 10 min each time, and then ECL was added for incubation in dark for 5 min, and subsequently, a fluorescence imaging analyzer was used for image development and scanning analysis.

lymphoma U937 cells [4] = assay: MTT colorimetric experiment, cell growth inhibition; conditions: U937 cells, 0.1, 1, 10, 100, 200 and 250 μmol/L, MTT after 24 h
Method: (§5) MTT colorimetric experiments were performed after 24 h, respectively: prior to the finish of each experiment, 15 μl of MTT solution in a concentration of 5 mg/ml was added to each well, and the culture was continued in dark at 37° C. for 4 h, then 150 μl of DMSO was added to each well and oscillating in a shaker for 10 min, and then the residue was placed in a microplate reader to detect the optical density OD) at 490 nm, and the inhibition rate was calculated according to the following formula: cell growth inhibition rate (control group OD490—test group OD490)/control group OD490×100%.

[5] = test system: human melanoma A875 cells; assay: as above; conditions: melanoma A875 cells, 0.1, 1, 10, 100, 200 and 250 μmol/L, MTT after 24 h
Method: as §5

[6] = test system: cycle regulatory protein P21; assay: Western Blotting of P21 in U937 cells; conditions: 10 μmol/L, 24 h
Method: as §2, §3, §4

[7] = test system: histiocytic lymphoma U937 cells; assay: Cell cycle distribution, PI staining, flow cytometer; conditions: 24 h
Description: (§6) The influences of Mogroside I E1, Mogroside II A2 and mogrol on the cell cycle distribution of the histiocytic lymphoma U937 cells, the human melanoma A875 cells and the leukemia cells K562.
(§7) The cell cycle arrest achieved by drugs is an important approach to the inhibition of cancer cell proliferation.

[8] = test system: human melanoma A875 cells; assay: as above
Description: as §6, §7

C[C@H](CC[C@@H](O)C(C)(C)O)[C@H]1CC[C@@]2(C)[C@@H]3CC=C4[C@@H](CC[C@H](O)C4(C)C)[C@]3(C)[C@H](O)C[C@]12C [mogrol]
cell morphology variation (Hoechst 33258) (lymphoma U937 cells [1]): identical to the results of Mogroside II A2 | cell morphology variation (Hoechst 33258) [2]: identical to the results of Mogroside II A2 | expression of cycle regulatory protein P21 [3]: significantly up-regulated | cell growth inhibition rate (lymphoma U937 cells [4]): inhibitory effect on the proliferation | cell growth inhibition rate [5]: inhibitory effect on the proliferation | expression of cycle regulatory protein P21 [6]: significantly up-regulated | proportion of cells in G0/G1 phase with the rise of the concentration ([7]; U937 cells, 0, 1, 10, 150 and 250 μmol/L): gradually increased | cell cycle distribution (proportion of cells of G0/G1 phase) ([7]; U937 cells, 10 μmol/L): G0/G1 arrest | cell cycle distribution (proportion of cells in the G0/G1 phase) ([8]; human melanoma A875 cells, 10 μmol/L, 24 h): G0/G1 arrest | proportion of cells in the G0/G1 phase with the rise of the concentration ([8]; melanoma A875 cells, different concentrations (FIG. 12)): gradually increased
